For series [1], the target named is Leucine-rich repeat serine/threonine-protein kinase 2 (Homo sapiens, UniProt Q5S007). Put plainly: Inhibition of LRRK2 (unknown origin).
Series [2] in a line: Clearance in mouse at 1 mg/kg, iv. The format is ADME, organism-based. To be noted: in vivo.
A short description of series [3]: Inhibition of LRRK2 G2019S mutant-induced neuronal toxicity in rat cortical neurons.
The subject of another series is Brain. Put plainly: Druguptake in mouse brain at 1 mg/kg, iv. The format is ADME, organism-based. To be noted: in vivo.
The target of series [4] is Leucine-rich repeat serine/threonine-protein kinase 2 (Homo sapiens, UniProt Q5S007, G2019S). Briefly: Inhibition of LRRK2 G2019S mutant in human HEK293 cells assessed as phosphorylation at Ser935. The format is cell-based.
Leucine-rich repeat serine/threonine-protein kinase 2 (Homo sapiens, UniProt Q5S007, G2019S), sequence (Q5S007 whole entry G2019S): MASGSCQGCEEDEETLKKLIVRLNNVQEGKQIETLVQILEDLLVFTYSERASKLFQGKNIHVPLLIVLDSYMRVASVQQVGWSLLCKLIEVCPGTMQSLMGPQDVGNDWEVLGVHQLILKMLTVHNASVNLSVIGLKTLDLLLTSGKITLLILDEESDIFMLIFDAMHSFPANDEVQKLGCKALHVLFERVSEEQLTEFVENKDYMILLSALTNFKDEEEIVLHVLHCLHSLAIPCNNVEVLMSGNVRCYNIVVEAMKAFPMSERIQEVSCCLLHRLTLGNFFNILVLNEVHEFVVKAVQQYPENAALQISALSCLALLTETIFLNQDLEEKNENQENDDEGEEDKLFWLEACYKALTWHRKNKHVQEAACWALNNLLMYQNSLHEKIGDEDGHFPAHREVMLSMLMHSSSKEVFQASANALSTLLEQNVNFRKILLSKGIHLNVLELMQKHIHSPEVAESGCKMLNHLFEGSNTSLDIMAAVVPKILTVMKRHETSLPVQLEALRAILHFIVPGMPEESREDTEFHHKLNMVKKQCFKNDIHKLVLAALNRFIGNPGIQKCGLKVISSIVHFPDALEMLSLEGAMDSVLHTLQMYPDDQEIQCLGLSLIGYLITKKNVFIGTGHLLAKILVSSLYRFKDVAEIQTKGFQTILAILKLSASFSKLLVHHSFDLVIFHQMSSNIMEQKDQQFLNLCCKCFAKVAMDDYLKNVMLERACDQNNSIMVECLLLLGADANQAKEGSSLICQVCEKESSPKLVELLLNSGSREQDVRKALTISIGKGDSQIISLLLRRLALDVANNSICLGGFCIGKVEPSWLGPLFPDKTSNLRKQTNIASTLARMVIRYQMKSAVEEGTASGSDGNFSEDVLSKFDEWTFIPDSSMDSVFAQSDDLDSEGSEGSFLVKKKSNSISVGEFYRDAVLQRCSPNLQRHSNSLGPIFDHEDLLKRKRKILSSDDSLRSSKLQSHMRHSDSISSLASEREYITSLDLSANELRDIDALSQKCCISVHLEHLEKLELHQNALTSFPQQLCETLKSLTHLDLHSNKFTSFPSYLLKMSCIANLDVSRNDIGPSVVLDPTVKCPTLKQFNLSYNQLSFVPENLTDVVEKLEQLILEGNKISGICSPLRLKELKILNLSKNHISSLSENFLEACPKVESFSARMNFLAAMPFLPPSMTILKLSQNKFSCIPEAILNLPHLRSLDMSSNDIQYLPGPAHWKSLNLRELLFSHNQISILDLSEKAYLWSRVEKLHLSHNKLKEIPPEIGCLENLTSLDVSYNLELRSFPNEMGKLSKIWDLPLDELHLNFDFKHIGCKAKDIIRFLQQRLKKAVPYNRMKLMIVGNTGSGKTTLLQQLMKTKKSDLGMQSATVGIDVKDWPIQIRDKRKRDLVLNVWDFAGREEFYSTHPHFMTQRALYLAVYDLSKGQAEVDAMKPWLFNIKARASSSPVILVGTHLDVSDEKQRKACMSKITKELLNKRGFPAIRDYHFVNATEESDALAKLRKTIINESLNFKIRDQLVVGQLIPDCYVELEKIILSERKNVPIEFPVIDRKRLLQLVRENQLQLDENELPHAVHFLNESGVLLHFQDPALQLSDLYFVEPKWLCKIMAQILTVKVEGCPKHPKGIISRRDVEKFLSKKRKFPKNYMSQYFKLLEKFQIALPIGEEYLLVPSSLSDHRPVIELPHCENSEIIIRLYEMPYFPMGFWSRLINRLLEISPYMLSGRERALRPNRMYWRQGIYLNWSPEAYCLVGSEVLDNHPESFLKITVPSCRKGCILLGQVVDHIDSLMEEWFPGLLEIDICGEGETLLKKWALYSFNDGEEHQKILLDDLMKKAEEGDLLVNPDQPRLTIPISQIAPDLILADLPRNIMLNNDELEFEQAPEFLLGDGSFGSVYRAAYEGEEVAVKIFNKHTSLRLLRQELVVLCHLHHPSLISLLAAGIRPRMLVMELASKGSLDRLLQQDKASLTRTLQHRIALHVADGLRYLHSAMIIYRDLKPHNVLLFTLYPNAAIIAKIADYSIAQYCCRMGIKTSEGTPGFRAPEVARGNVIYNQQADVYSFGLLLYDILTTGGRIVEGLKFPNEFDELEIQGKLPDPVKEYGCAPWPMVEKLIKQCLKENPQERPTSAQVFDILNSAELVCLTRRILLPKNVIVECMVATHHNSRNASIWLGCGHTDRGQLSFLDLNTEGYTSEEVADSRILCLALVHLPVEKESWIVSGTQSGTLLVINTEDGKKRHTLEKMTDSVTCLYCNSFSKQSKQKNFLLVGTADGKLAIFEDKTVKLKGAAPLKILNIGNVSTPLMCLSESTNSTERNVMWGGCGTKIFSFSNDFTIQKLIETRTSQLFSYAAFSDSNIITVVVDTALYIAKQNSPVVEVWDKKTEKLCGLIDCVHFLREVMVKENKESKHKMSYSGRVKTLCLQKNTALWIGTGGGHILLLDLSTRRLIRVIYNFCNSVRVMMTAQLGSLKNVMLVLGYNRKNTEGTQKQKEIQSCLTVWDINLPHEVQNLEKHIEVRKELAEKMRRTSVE

The source of these data is ChEMBL document CHEMBL3603772, “Chemical Biology of Leucine-Rich Repeat Kinase 2 (LRRK2) Inhibitors” (J Med Chem, 2015).

Molecules are shown by their SMILES.

Leucine-rich repeat serine/threonine-protein kinase 2 (Homo sapiens, UniProt Q5S007), sequence (Q5S007 whole entry): as the sequence (Q5S007 whole entry G2019S) above, with S2019G counted along it

As usually defined, the IC50 is the concentration that inhibits the measured activity by half. Turning to `COc1cc(C(=O)N2CCC(N3CCN(C)CC3)CC2)ccc1Nc1ncc2c(n1)N(C)c1ccccc1C(=O)N2C`, the IC50 in series [1] stood at 6 nM.

The clearance is the volume of plasma or blood freed of the substance per unit of time. A higher clearance goes with a high capacity for elimination. A word on the EC50: it is the concentration that produces a half-maximal response. In turn, `COc1cc(N2CCOCC2)ccc1Nc1ncc(F)c(Nc2ccccc2NS(C)(=O)=O)n1` had an IC50 in series [1] of 7 nM. In addition, the clearance in series [2] was determined as 2.3 mL/min/kg. In series [3], the 50% effective concentration (EC50) amounted to 100 nM. The Drug uptake in the series on Brain amounted to 4%.

As to `CN1CCN(c2ccc(OCc3ccccc3)c(C(=O)Nc3cccnc3)c2)CC1`, the figures for the half-inhibitory concentration (IC50) in series [1] and in series [4] were 6 nM and 94 nM, respectively.
